From US20080199846A1, “Poultry semen extender” (priority 2007, published 2008)

Test system: 24 h-stored turkey semen
Test: Fertility evaluation: artificial insemination of hens with 24 h-stored turkey semen
Type: in vivo
Conditions: for fertility of 24 h-stored semen versus control stored semen: 0.5, 2.5 or 10.0 mg/ml PC, wks 1-7 of egg production
Text: Materials and Methods. Animals: LargeWhite breeder poults were purchased from a primary breeder and maintained under standard management conditions during the brooding and growing periods. At 28 wk of age, toms were photostimulated by increasing light exposure from a 12:12 to a 14:10 light:dark cycle to initiate semen production. Using the abdominal massage semen collection method (Burrows, W. H., and J. P. Quinn, Poult. Sci., 14: 251-254 (1935)), toms were pre-milked at 30 wk of age and then screened for semen quality at 31 and 32 wk of age prior to being designated to sperm storage treatment groups. At 32 wk of age, hens were photostimulated by increasing the daily light exposure from 6:18 to 14:10 h (light:dark) to initiate ovarian development and egg production. Hens were inseminated on Days 10 and 12 after photostimulation and then once per week for the next 12 wk of egg production. A total of 10 toms and 76 hens were used for each experimental replicate.
Semen Collection, Evaluation and Storage: Semen was collected weekly from toms and evaluated for volume, sperm concentration, sperm viability, and sperm mobility. Fresh semen was aliquoted for the control and 3 sperm treatments. Control semen was extended 1:1 with Beltsville Poultry Semen Extender (BPSE), while treated semen was extended 1:1 with BPSE supplemented with 0.5, 2.5 or 10.0 mg/ml phosphatidylcholine (PC). Extended semen was transferred to 48-well culture plates. Multiwell plates were placed in a room temperature water bath on an orbital shaker (125 rpm) and slowly cooled to 4° C. with lids loosely fitted to ensure air availability during agitation. Semen was maintained under these conditions for 24 h.
Fertility Evaluation: A total of 304 hens (76/replicate) were artificially inseminated weekly with semen stored with 0.5 mg PC/ml (n=19), 2.5 mg PC/ml (n=19), 10 mg PC/ml (n=19) or without PC (control, n=19). An additional set of hens were inseminated weekly with stored semen containing 2.5 mg/ml PC and either 0.5 mM, 5.0 mM, or 50 mM ZnCl2; prior to insemination, semen stored in the presence of ZnCl2 was treated with EDTA to chelate Zn ions and restore sperm motility. The inseminant dose for all treatments was 150×10^6 sperm. This sperm number is less than that typically inseminated for commercial production; however, I desired a system sufficiently sensitive to detect even small changes in fertility due to sperm treatment. Eggs were candled after 7 d of incubation to determine true fertility and allowed to hatch to determine hatchability. Fertility trials were replicated 4 times using different flocks.
Statistical Analysis: Prior to analysis, data were checked to determine if a transformation was necessary. As expected, variables scored as percents (e.g., fertility) required transformation. I used the standard variance stabilizing arcsine transformation, y=arcsine (√(x)), where x represents the data, recorded as a proportion, and y is the scale used in the analysis. This transformation stabilized the variances sufficiently to proceed with an analysis in a mixed models framework. Software for conducting mixed models analyses in non-Gaussian frameworks, e.g., logistic regression, is not yet readily available. The mixed models I developed, estimated using Proc Mixed (SAS Institute, 1999), considered sperm treatment and week of study as fixed factors, with hen as a random factor. In addition, since data were taken from the same individuals repeatedly, thus inducing correlation, I allowed for within-individual time series correlation using an autoregressive structure. To ensure that my sample size and design had sufficient power to accurately determine the effects of the sperm treatments, I did a small simulation study prior to finalizing the design. Power was reassessed once the study was complete, and I report those results below. I used the default REML estimation method in Proc Mixed. […]

Compound | fertility rates versus 5.0 or 50 mM ZnCl2 (0.5 mM ZnCl2, semen with 2.5 mg/ml PC, EDTA before insemination, p<0.05) | true fertility of 24 h-stored semen versus other ZnCl2 treatments or control semen (5.0 mM ZnCl2, wks 1-7, p<0.05) | hens producing 100% fertile eggs versus any other stored semen treatment (2.5 mg/ml PC, first 7 wks of egg production, p<0.05) | percentage of hens laying all (100%) fertile eggs versus any other sperm treatment group (2.5 mg/ml PC, wks 2-7, p<0.05) | predictability of fertility versus the other concentrations (10 mg/ml) | fertility rates during egg production (10 mg/ml PC treatment) | fertility rates versus 0.5 or 2.5 mg/ml PC treatments (10 mg/ml PC, at 1, 2 8, 10, 11, and 12 wks, p<0.05) | percentage of hens laying all unfertilized eggs versus any other sperm treatment group (10.0 mg/ml PC, wks 4 and 10, p<0.05) | fertility of 24 h-stored semen versus control stored semen (p<0.05) | fertility of 24 h-stored semen versus control stored semen (p<0.05, listed as phosphatidycholine) | fertility of stored turkey semen (0.5 or 2.5 mg/ml, first 12 wks of egg production) | fertility rates, 0.5 versus 2.5 mg/ml PC treatments (throughout egg production except wks 7 and 12, p>0.05) | fertility of 2.5 mg/ml PC treatment versus 0.5 mg/ml (wks 7 and 12, p<0.05)
[Cl-].[Cl-].[Zn+2] [ZnCl2] | Higher | higher | – | – | – | – | – | – | – | – | – | – | –
phosphatidylcholine [PC] | – | – | more | more | less predictable fertility | varied widely | Lower | more | improved | higher | improved | similar | higher
